Experimental data: patent US20240279202A1 (NURIX THERAPEUTICS, INC., priority 2021, published 2024)

Key:
[1] = target: T1, ITK (Homo sapiens, UniProt Q08881); test: ITK degradation HiBiT assay; assay type: cell-based; design: expressed in transfected cells; host or cells: Molt4 (ATCC CRL-1552), monoclonal clone 1C10, engineered to carry the HiBiT tag; conditions: 4 hrs; for Dmax: MOLT-4, C-terminal HiBiT-tagged Molt4 cells; for DC50: C-terminal HiBiT-tagged Molt4 cells
T1 sequence (Q08881 1-620): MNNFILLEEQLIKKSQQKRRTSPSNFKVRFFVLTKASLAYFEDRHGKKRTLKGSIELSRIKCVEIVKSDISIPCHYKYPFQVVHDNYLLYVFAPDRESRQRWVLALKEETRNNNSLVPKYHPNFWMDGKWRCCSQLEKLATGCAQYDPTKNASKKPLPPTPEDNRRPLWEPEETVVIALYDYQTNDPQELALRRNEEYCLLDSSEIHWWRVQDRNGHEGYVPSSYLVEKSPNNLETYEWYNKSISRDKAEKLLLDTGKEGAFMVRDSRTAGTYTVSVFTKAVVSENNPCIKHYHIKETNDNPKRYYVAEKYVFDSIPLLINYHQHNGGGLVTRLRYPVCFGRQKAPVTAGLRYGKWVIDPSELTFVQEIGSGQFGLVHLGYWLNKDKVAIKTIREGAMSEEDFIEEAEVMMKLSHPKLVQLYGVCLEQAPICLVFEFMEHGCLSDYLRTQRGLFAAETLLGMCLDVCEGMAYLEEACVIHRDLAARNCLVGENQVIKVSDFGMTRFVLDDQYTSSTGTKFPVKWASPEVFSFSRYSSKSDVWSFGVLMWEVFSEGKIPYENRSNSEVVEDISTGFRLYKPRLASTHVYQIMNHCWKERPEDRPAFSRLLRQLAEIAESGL
How it was run: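 C-terminal HiBiT-tagged Molt4 cells (clone 1C10) treated 4 h at 32° C with an 11-point, 5-fold compound dilution series (0.5% DMSO). HiBiT lytic detection with LgBiT then luminescence read; % ITK remaining versus concentration fit by four-parameter variable-slope model to give DC50 and Dmax.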

[2] = Mouse PK analysis (blood/plasma concentration after oral administration); assay type: in vivo; conditions: mouse; mice, oral, plasma
Procedure: Compounds 1, 3, 7, and 42 were formulated and administered at 90 mg/kg to mice by oral gavage (PO). Blood was collected at defined time points (after 1, 2, and 6 hours) after compounds administration to determine PK parameters. Concentration increased through 6 hours. Six hours later mice were sacrificed and splenocytes were isolated and used to prepare protein lysates. Total protein levels were determined in the lysates using the BCA assay according to standard methods. Equal amounts of protein were then analyzed by Western blot to determine the level of ITK expression in each sample. ITK band intensities were measured using Alpha View software and the percent of ITK remaining in each test animal was determined relative to the mean of ITK levels in vehicle control samples.
Compounds 16, 17, and 18 were administered to mice orally. After 6 hours or 24 hours, splenocytes cells were harvested. ITK was evaluated by Western blotting. Plasma concentrations were determined by LC/MS/MS. Plasma samples were protein precipitated by addition of 100 μl of acetonitrile containing 50 ng/ml of internal standard. The resulting mixture was vortexed and centrifuged at 4000 RPM for 5 minutes. An aliquot of the resultant supernatant (75 μl) was added to 75 μl of 0.1% formic acid in water to constitute the final sample for injection. Samples were injected on a Shimadzu Exion LC Binary Gradient AD Pump HLPC system connected to a Sciex QTRAP 6500+mass spectrometer. Five μl of sample was injected onto a Waters Acquity UPLC BEH C18 column 130A (2.1×30 mm, […]) at 40° C. utilizing a flow rate of 700 μl/minute. Mobile Phase A was 0.1% formic acid in water and mobile phase B was 0.1% formic acid in acetonitrile. A linear gradient of 15-95% B over 1.0 minute was used. The mass spectrometer was operated in positive ion electrospray mode with multiple reaction monitoring for maximum sensitivity. Sciex Analyst software (version 1.6.3) was used for LC/MS/MS instrument control and acquisition. Compound concentration was determined against a standard curve of internal standard versus compound peak area ratio. Noncompartmental PK parameters were determined using […] software (version 8.2.0.4383) from Certara. Plasma concentrations from the LC/MS/MS analyses, dose, route of administration, and desired units were utilized for PK parameter calculations. […] FIG. 4C provides the concentration over time of compound 17 following in vivo oral administration in the 6 hour and 24 hour assays.
Cmax, Tmax and AUClast were all calculated using a WinNonLin Phoenix 64 v 8.2.0.4383. Using non-compartmental analysis, Tmax, Cmax and AUClast were determined as follows: • Tmax—Time of maximum observed concentration. • Cmax—Maximum observed concentration, occurring at time Tmax, as defined above. • AUClast—Area under the curve from the time of dosing to the time of the last measurable (positive) concentration (Tlast).

SMILES | Dmax [1] [%] | AUC(0-t) [2] [µM·h] | Cmax [2] [nM] | Tmax [2] [h] | DC50 [1] [nM]
CC1(C)CCc2c(-c3cc4ccc(C(=O)N5CCC(CN6CCC7(C6)CN(c6ccc(C8CCC(=O)NC8=O)cn6)C7)CC5)cc4[nH]3)n[nH]c2C1 (centres unmarked) [Compound 61, 3-(6-(6-((1-(2-(6,6-dimethyl-4,5,6,7-tetrahydro-1H-indazol-3-yl)-1H-indole-6-carbonyl)piperidin-4-yl)methyl)-2,6-diazaspiro[3.4]octan-2-yl)pyridin-3-yl)piperidine-2,6-dione] | 83 | 0.08 | 23 | 1.5 | 
C[C@@]12Cc3[nH]nc(C(=O)Nc4cnn([C@H](c5ccccc5)C5CN(C(=O)C6CN(c7ccc(C8CCC(=O)NC8=O)cn7)C6)C5)c4)c3C[C@@H]1C2(F)F (stereo partly drawn) [Compound 51, (4aS,5aR)-N-(1-((1S)-(1-(1-(5-(2,6-dioxopiperidin-3-yl)pyridin-2-yl)azetidine-3-carbonyl)azetidin-3-yl)(phenyl)methyl)-1H-pyrazol-4-yl)-5,5-difluoro-5a-methyl-1,4,4a,5,5a,6-hexahydrocyclopropa[f]indazole-3-carboxamide] |  | 2.34 | 720 | 6 | 
CC1(C)CCc2c(-c3cc4ccc(C(=O)N5CCC(C6CCN(c7ccc(C8CCC(=O)NC8=O)cn7)CC6)CC5)cc4[nH]3)n[nH]c2C1 (centres unmarked) [Compound 58, 3-(6-(1′-(2-(6,6-dimethyl-4,5,6,7-tetrahydro-1H-indazol-3-yl)-1H-indole-6-carbonyl)-[4,4′-bipiperidin]-1-yl)pyridin-3-yl)piperidine-2,6-dione] | 69 | 0.18 | 61 | 1.5 | 13.4
CC1(C)CCc2c(-c3cc4cc(F)c(C(=O)N5CCN(CC6CCN(c7ccc(C8CCC(=O)NC8=O)nc7)CC6)CC5)cc4[nH]3)n[nH]c2C1 (centres unmarked) [Compound 216, 3-{5-[4-({4-[2-(6,6-dimethyl-1,4,5,7-tetrahydroindazol-3-yl)-5-fluoro-1H-indole-6-carbonyl]piperazin-1-yl}methyl)piperidin-1-yl]pyridin-2-yl}piperidine-2,6-dione] | 87 |  |  |  | 0.06
C[C@@H]1CN(C(=O)c2ccc3cc(-c4n[nH]c5c4CCC(C)(C)C5)[nH]c3c2)C[C@H](C)N1CC1CCN(c2ccc(C3CCC(=O)NC3=O)cc2)CC1 (some centres unmarked) [Compound 157] | 84 |  |  |  | 
C[C@@]12Cc3[nH]nc(C(=O)Nc4cnn(C5CCN(CC6CCN(c7ccc(N8CCC(=O)NC8=O)cn7)CC6)CC5)c4)c3C[C@@H]1C2(F)F [Compound 113, (4aS,5aR)-N-{1-[1-({1-[5-(2,4-dioxo-1,3-diazinan-1-yl)pyridin-2-yl]piperidin-4-yl}methyl)piperidin-4-yl]-1H-pyrazol-4-yl}-5,5-difluoro-5a-methyl-1H,4H,4aH,5H,5aH,6H-cyclopropa[f]indazole-3-carboxamide] | 80 |  |  |  | 0.4
CC1(C)CCc2c(-c3cc4ccc(C(=O)N5CCC(CC6CCN(c7ccc(C8CCC(=O)NC8=O)cn7)CC6)CC5)cc4[nH]3)n[nH]c2C1 (centres unmarked) [Compound 54, 3-(6-(4-((1-(2-(6,6-dimethyl-4,5,6,7-tetrahydro-1H-indazol-3-yl)-1H-indole-6-carbonyl)piperidin-4-yl)methyl)piperidin-1-yl)pyridin-3-yl)piperidine-2,6-dione] |  |  |  |  | 11
CN(C(=O)CN1CC2(CCN(c3ccc4c(c3)C(=O)N(C3CCC(=O)NC3=O)C4=O)C2)C1)c1ccc2cc(-c3n[nH]c4c3C[C@@H]3C(F)(F)[C@]3(C)C4)[nH]c2c1 (some centres unmarked) [Compound 71] | 70 |  |  |  | 5.2
C[C@@]12Cc3[nH]nc(C(=O)Nc4cnn(C5CCN(CC6CCN(c7ccc(N8CCC(=O)NC8=O)cc7)C6)CC5)c4)c3C[C@@H]1C2(F)F (stereo partly drawn) [Compound 209, (4aS,5aR)-N-(1-(1-((1-(4-(2,4-dioxotetrahydropyrimidin-1(2H)-yl)phenyl)pyrrolidin-3-yl)methyl)piperidin-4-yl)-1H-pyrazol-4-yl)-5,5-difluoro-5a-methyl-1,4,4a,5,5a,6-hexahydrocyclopropa[f]indazole-3-carboxamide] | 78 |  |  |  | 0.345
C[C@@H]1CN(C(=O)c2ccc3cc(-c4n[nH]c5c4CCC(C)(C)C5)[nH]c3c2)CCN1CC1CCN(c2ccc(C3CCC(=O)NC3=O)cc2)CC1 (some centres unmarked) [Compound 156] | 84 |  |  |  | 
C[C@@]12Cc3[nH]nc(C(=O)Nc4cnn(C5CCC(C(=O)N6CCN(c7ccc(C8CCC(=O)NC8=O)cc7)CC6)CC5)c4)c3C[C@@H]1C2(F)F (mixture of isomers) [Compound 179] | 88 |  |  |  | 
C[C@@]12Cc3[nH]nc(C(=O)Nc4cnn(CC5CCN(CC6CCN(c7ccc(C8CCC(=O)NC8=O)cc7)CC6)CC5)c4)c3C[C@@H]1C2(F)F (mixture of isomers) [Compound 119, (4aS,5aR)-N-[1-({1-[(1-{4-[(3RS)-2,6-dioxopiperidin-3-yl]phenyl}piperidin-4-yl)methyl]piperidin-4-yl}methyl)-1H-pyrazol-4-yl]-5,5-difluoro-5a-methyl-1H,4H,4aH,5H,5aH,6H-cyclopropa[f]indazole-3-carboxamide] | 85 |  |  |  | 0.041
